Earlier results, collected in patent US20130209380A1, “MOISTURIZING COMPOSITION WITH SPF 30” (GALDERMA S.A., priority 2010, published 2013).

System: stratum corneum
Details: In vitro human skin model

In the case of CCCCCCCCCCCCCCC[C@@H](O)[C@H](CO)NC(=O)C(O)CCCCCCCCCCCCCC (some centres unmarked) [pseudo ceramide 5, N-(2-hydroxyhexadecanoyl)sphinganine], the “affinity and diffusion into the stratum corneum” value is listed as “good” and the “effect on synthesis of ceramides 1-2-3” value is listed as “induction synthesis of ceramides 1-2-3”.
